Assay results published in PubChem BioAssay (NCI).
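Here, GI50 denotes the concentration required for 50% inhibition of growth. At the TGI there is no net growth.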

How the values were obtained:
Assay in all cases: NCI anticancer screen, dose series, 384-well format
NCI-H23 lung = tested on: NCI-H23 lung
NCI-H322M lung = tested on: NCI-H322M lung
NCI-H460 NSCLC = tested on: NCI-H460 NSCLC
NCI-H522 lung = tested on: NCI-H522 lung
OVCAR-3 ovarian = tested on: OVCAR-3 ovarian
OVCAR-4 ovarian = tested on: OVCAR-4 ovarian
OVCAR-5 ovarian = tested on: OVCAR-5 ovarian
OVCAR-8 ovarian = tested on: OVCAR-8 ovarian
PC-3 prostate = tested on: PC-3 prostate
RXF 393 renal = tested on: RXF 393 renal
SF-268 CNS = tested on: SF-268 CNS
SF-295 CNS = tested on: SF-295 CNS
SF-539 CNS = tested on: SF-539 CNS
SK-MEL-2 melanoma = tested on: SK-MEL-2 melanoma
SK-MEL-28 melanoma = tested on: SK-MEL-28 melanoma
SK-MEL-5 melanoma = tested on: SK-MEL-5 melanoma
SK-OV-3 ovarian = tested on: SK-OV-3 ovarian
SN12C renal = tested on: SN12C renal
SNB-19 CNS = tested on: SNB-19 CNS
SNB-75 CNS = tested on: SNB-75 CNS
SR leukemia = tested on: SR leukemia
SW-620 colon = tested on: SW-620 colon
T-47D breast = tested on: T-47D breast
TK-10 renal = tested on: TK-10 renal
U251 glioblastoma = tested on: U251 glioblastoma
UACC-257 melanoma = tested on: UACC-257 melanoma
UACC-62 melanoma = tested on: UACC-62 melanoma
UO-31 renal = tested on: UO-31 renal

Q: How did the TGI (NCI-H23 lung) turn out when `Cn1cc(-c2ccc(CNc3cc(-c4cnc5cc(OCCCN6CCCC6)ccn45)ncn3)cc2)cn1` was run?
A: Its TGI is 23.5 µM.

Q: What about the GI50 (NCI-H322M lung) of the same compound?
A: The GI50 was 1.92 µM.

Q: What about the TGI (NCI-H322M lung) of the same compound?
A: The TGI was 3.57 µM.

Q: What about the GI50 (NCI-H460 NSCLC) of the same compound?
A: The GI50 was 1.32 µM.

Q: What about the TGI (NCI-H460 NSCLC) of the same compound?
A: Its TGI is 2.62 µM.

Q: What about the GI50 (NCI-H522 lung) of the same compound?
A: Its GI50 is 2.09 µM.

Q: And the TGI (NCI-H522 lung)?
A: The TGI was 3.53 µM.

Q: And the GI50 (OVCAR-3 ovarian)?
A: Its GI50 is 1.84 µM.

Q: What about the TGI (OVCAR-3 ovarian) of the same compound?
A: Its TGI is 3.25 µM.

Q: And the GI50 (OVCAR-4 ovarian)?
A: The GI50 was 1.55 µM.

Q: What about the TGI (OVCAR-4 ovarian) of the same compound?
A: Its TGI is 2.91 µM.

Q: What about the GI50 (OVCAR-5 ovarian) of the same compound?
A: Its GI50 is 1.69 µM.

Q: And the TGI (OVCAR-5 ovarian)?
A: Its TGI is 3.09 µM.

Q: And the GI50 (OVCAR-8 ovarian)?
A: The GI50 was 1.72 µM.

Q: And the TGI (OVCAR-8 ovarian)?
A: Its TGI is 3.11 µM.

Q: And the GI50 (PC-3 prostate)?
A: The GI50 was 1.7 µM.

Q: And the TGI (PC-3 prostate)?
A: Its TGI is 3.28 µM.

Q: And the GI50 (RXF 393 renal)?
A: The GI50 was 1.53 µM.

Q: And the TGI (RXF 393 renal)?
A: The TGI was 2.87 µM.

Q: What about the GI50 (SF-268 CNS) of the same compound?
A: Its GI50 is 1.85 µM.

Q: What about the TGI (SF-268 CNS) of the same compound?
A: Its TGI is 3.28 µM.

Q: And the GI50 (SF-295 CNS)?
A: Its GI50 is 1.81 µM.

Q: And the TGI (SF-295 CNS)?
A: The TGI was 3.22 µM.

Q: What about the GI50 (SF-539 CNS) of the same compound?
A: The GI50 was 1.18 µM.

Q: And the TGI (SF-539 CNS)?
A: The TGI was 2.41 µM.

Q: And the GI50 (SK-MEL-2 melanoma)?
A: Its GI50 is 1.84 µM.

Q: What about the TGI (SK-MEL-2 melanoma) of the same compound?
A: The TGI was 3.24 µM.

Q: And the GI50 (SK-MEL-28 melanoma)?
A: Its GI50 is 1.82 µM.

Q: What about the TGI (SK-MEL-28 melanoma) of the same compound?
A: The TGI was 3.22 µM.

Q: What about the GI50 (SK-MEL-5 melanoma) of the same compound?
A: The GI50 was 1.49 µM.

Q: And the TGI (SK-MEL-5 melanoma)?
A: The TGI was 2.82 µM.

Q: What about the GI50 (SK-OV-3 ovarian) of the same compound?
A: Its GI50 is 1.8 µM.

Q: What about the TGI (SK-OV-3 ovarian) of the same compound?
A: The TGI was 3.21 µM.

Q: And the GI50 (SN12C renal)?
A: The GI50 was 1.77 µM.

Q: And the TGI (SN12C renal)?
A: Its TGI is 3.16 µM.

Q: What about the GI50 (SNB-19 CNS) of the same compound?
A: The GI50 was 1.74 µM.

Q: And the TGI (SNB-19 CNS)?
A: Its TGI is 3.41 µM.

Q: What about the GI50 (SNB-75 CNS) of the same compound?
A: Its GI50 is 1.79 µM.

Q: What about the TGI (SNB-75 CNS) of the same compound?
A: Its TGI is 3.19 µM.

Q: What about the GI50 (SR leukemia) of the same compound?
A: Its GI50 is 1.69 µM.

Q: What about the TGI (SR leukemia) of the same compound?
A: The TGI was 3.07 µM.

Q: What about the GI50 (SW-620 colon) of the same compound?
A: The GI50 was 1.69 µM.

Q: What about the TGI (SW-620 colon) of the same compound?
A: Its TGI is 3.09 µM.

Q: What about the GI50 (T-47D breast) of the same compound?
A: The GI50 was 1.9 µM.

Q: And the TGI (T-47D breast)?
A: The TGI was 3.33 µM.

Q: And the GI50 (TK-10 renal)?
A: Its GI50 is 1.78 µM.

Q: What about the TGI (TK-10 renal) of the same compound?
A: The TGI was 3.18 µM.

Q: And the GI50 (U251 glioblastoma)?
A: The GI50 was 1.79 µM.

Q: What about the TGI (U251 glioblastoma) of the same compound?
A: The TGI was 3.2 µM.

Q: And the GI50 (UACC-257 melanoma)?
A: Its GI50 is 1.53 µM.

Q: What about the TGI (UACC-257 melanoma) of the same compound?
A: The TGI was 2.87 µM.

Q: What about the GI50 (UACC-62 melanoma) of the same compound?
A: The GI50 was 1.83 µM.

Q: And the TGI (UACC-62 melanoma)?
A: Its TGI is 3.23 µM.

Q: What about the GI50 (UO-31 renal) of the same compound?
A: Its GI50 is 1.75 µM.

Q: And the TGI (UO-31 renal)?
A: The TGI was 3.14 µM.
